Experimental data as given in patent publication US10849878B2 (OBSHCHESTVO S OGRANICHENNOY OTVETSTVENNOSTYU “NORMOFARM”, priority 2015, dated 2020).
Where “and” joins values, the source holds several entries; their conditions need not be identical. Equal values may be shown once. Read-outs that look alike come from different tables or passages of the source.

Assays:
white Wistar rats = test: suspension test (24 h), antistress and anxiolytic activity; format: in vivo, rat
Description: The anti-stress, anxiolytic and antidepressant effects of the claimed agent and compositions on its basis were determined as follows. […] The suspension test. Five animals from each group were used. Each animal was suspended for 24 hours. After that the sample of whole blood was taken from the sublingual vessels of that animal Then the animal was placed in a desiccator with diethyl ether. 60 minutes later a spinal decapitation of the animal was performed. The abdominal opening was performed and the number of ulcers on the inner surface of the stomach was counted. The obtained whole blood was placed in two test tubes. The whole blood was used to determine the number of eosinophils by the Duncker method. Serum was used to determine the biochemical composition of the blood. Adrenaline and norepinephrine were determined as biochemical indices. These characteristics are specific markers identifying the impact of stress factors of various etiologies. • 2. The transport stress simulation test. Five animals from each group were used. The animals were placed in cages fixed on a laboratory shutter. The duration of the test was 240 minutes. At the end of the test the animals were examined by the techniques described in paragraph 1. A sample of whole blood was taken to determine the number of eosinophils by the Duncker method. The blood serum was studied to measure the amount of enzymes: alanine aminotransferase (ALT), aspartate aminotransferase (AST), creatinine
The tests were carried out on 2-month-old rats of the Wistar line. The groups were selected according to the principle of paired counterparts.
During the course of the study the animals were selected from the formed groups of 10 animals each to participate in stress tests, 5 animals per test. The selection was made on the 7th, 14th, 21st day of the drug administration (experiments were performed on the same days right after selection). The animals were weighed weekly immediately before testing. The obtained data were processed by statistical methods of mathematical statistics. The drug was administered to the animals of the 2nd, 3rd and 4th groups in solution through a gastric tube. Water for injection produced by the “Bufus Novosibkhimpharm” was used as a solvent. The introduced volume was 1.5 ml. The solution was introduced at the same tine 2 hours after morning feeding. The first group was given water for injection by the same way. The volume of administration was 1.5 ml.
During the test a change in the reaction of the animals was observed during prolonged administration of the preparation. Three sequences of the experiment were performed with a periodicity of 7 days. The drug was administered from the first day of the study daily without a break. Thus, accumulation of the drug in the animal body occurred. Five animals from each group were used in each sequence of the experiment (the animals were suspended for 24 hours). After this, blood samples were taken from the sublingual vessels. Further, the animal was euthanized with diethyl ether. Decapitation and dissection of the abdominal cavity were performed to calculate the number of ulcers on the inner surface of the stomach. The rats as objects for the study of psychotropic drugs are a successful model. They react quickly to various stress factors. It is convenient to evaluate the efficacy of drugs due to various factors beginning with physiological, behavioral, biochemical and other parameters. In the suspension test, it is possible to determine the overall psycho-emotional state of the animal in addition to physical endurance.
The physiological, morphological and biochemical characteristics, such as the determination of ulcers in the stomach, eosinophils in whole blood, epinephrine and norepinephrine in blood serum were estimated as main and most informative indicators of the onset of a stress state in a living organism and of overall impact on the body. […]

rats = test: Porsolt helplessness test; format: in vivo, rat
male Wistar rats = conditions: for Dead / Survived: 6 rats
[1] = 30 mg/kg solution by gastric tube, administration day 7
[2] = 30 mg/kg solution by gastric tube, administration day 14
[3] = 30 mg/kg solution by gastric tube, administration day 21
[4] = 60 mg/kg in the form of pills with cocoa, administration day 7
[5] = 60 mg/kg in the form of pills with cocoa, administration day 14
[6] = 60 mg/kg in the form of pills with cocoa, administration day 21
[7] = 60 mg/kg solution by gastric tube, administration day 7
[8] = 60 mg/kg solution by gastric tube, administration day 14
[9] = 60 mg/kg solution by gastric tube, administration day 21
[10] = 120 mg/kg solution by gastric tube, administration day 7
[11] = 120 mg/kg solution by gastric tube, administration day 14
[12] = 120 mg/kg solution by gastric tube, administration day 21
[13] = 7 days after the dosing, LiAsc, LiCa 5 mg/kg, phenazepam 0.25 mg
[14] = 7 days after the drug withdrawal, 5 mg/kg
[15] = 28 days after the dosing, LiAsc, LiCa 5 mg/kg, phenazepam 0.25 mg
[16] = 28 days after the drug withdrawal, 5 mg/kg
[17] = single oral dose 6000 mg/kg, 6000 mg/kg
[18] = single oral dose 7000 mg/kg, 7000 mg/kg

For `O=C1O[C@H]([C@@H](O)CO)C([O-])=C1O.[Li+]` [lithium ascorbate], the “Adrenaline level in blood serum” value (white Wistar rats; [1]) was 8.1 ± 0.52 µg/L, the “Eosinophil count in whole blood” value (white Wistar rats; [1]) was 764 ± 6.5 and the “Noradrenaline level in blood serum” value (white Wistar rats; [1]) was 24.3 ± 2.2 µg/L. For the same molecule, the “Number of ulcers in the stomach” value (white Wistar rats; [1]) was 4.5 ± 0.9, the “Adrenaline level in blood serum” value (white Wistar rats; [2]) was 6.9 ± 2.77 µg/L and the “Eosinophil count in whole blood” value (white Wistar rats; [2]) was 897 ± 7.2. For the same molecule, the “Noradrenaline level in blood serum” value (white Wistar rats; [2]) was 18.2 ± 5.28 µg/L, the “Number of ulcers in the stomach” value (white Wistar rats; [2]) was 2.4 ± 0.2 and the “Adrenaline level in blood serum” value (white Wistar rats; [3]) was 6.9 ± 0.97 µg/L. For the same molecule, the “Eosinophil count in whole blood” value (white Wistar rats; [3]) was 954 ± 9.7, the “Noradrenaline level in blood serum” value (white Wistar rats; [3]) was 17.9 ± 0.95 µg/L and the “Number of ulcers in the stomach” value (white Wistar rats; [3]) was 1.9 ± 0.4. The “Eosinophil count in whole blood” value (white Wistar rats; [4]) was 653 ± 9.2, the “Noradrenaline level in blood serum” value (white Wistar rats; [4]) was 54.8 ± 10.4 µg/L and the “Number of ulcers in the stomach” value (white Wistar rats; [4]) was 8.7 ± 1.2. The “Adrenaline level in blood serum” value (white Wistar rats; [5]) was 6.7 ± 0.96 µg/L, the “Eosinophil count in whole blood” value (white Wistar rats; [5]) was 913 ± 0.9 and the “Noradrenaline level in blood serum” value (white Wistar rats; [5]) was 18.4 ± 0.49 µg/L. For the same molecule, the “Number of ulcers in the stomach” value (white Wistar rats; [5]) was 1.6 ± 0.9, the “Adrenaline level in blood serum” value (white Wistar rats; [6]) was 7.9 ± 3.61 µg/L and the “Eosinophil count in whole blood” value (white Wistar rats; [6]) was 954 ± 3.6. For the same molecule, the “Noradrenaline level in blood serum” value (white Wistar rats; [6]) was 17.8 ± 0.98 µg/L, the “Number of ulcers in the stomach” value (white Wistar rats; [6]) was 1.5 ± 0.6 and the “Adrenaline level in blood serum” value (white Wistar rats; [7]) was 7.9 ± 0.21 µg/L. The “Eosinophil count in whole blood” value (white Wistar rats; [7]) was 791 ± 1.2, the “Noradrenaline level in blood serum” value (white Wistar rats; [7]) was 22.1 ± 1.98 µg/L and the “Number of ulcers in the stomach” value (white Wistar rats; [7]) was 4.1 ± 0.8. For the same molecule, the “Adrenaline level in blood serum” value (white Wistar rats; [8]) was 7.1 ± 1.19 µg/L, the “Eosinophil count in whole blood” value (white Wistar rats; [8]) was 866 ± 9.4 and the “Noradrenaline level in blood serum” value (white Wistar rats; [8]) was 20.3 ± 3.49 µg/L. For the same molecule, the “Number of ulcers in the stomach” value (white Wistar rats; [8]) was 2.6 ± 0.4, the “Adrenaline level in blood serum” value (white Wistar rats; [9]) was 7.3 ± 2.14 µg/L and the “Eosinophil count in whole blood” value (white Wistar rats; [9]) was 910 ± 4.1. The “Noradrenaline level in blood serum” value (white Wistar rats; [9]) was 19.3 ± 6.13 µg/L, the “Number of ulcers in the stomach” value (white Wistar rats; [9]) was 2.4 ± 0.5 and the “Adrenaline level in blood serum” value (white Wistar rats; [10]) was 7.6 ± 0.38 µg/L. The “Eosinophil count in whole blood” value (white Wistar rats; [10]) was 768 ± 6.7, the “Noradrenaline level in blood serum” value (white Wistar rats; [10]) was 20.2 ± 5.67 µg/L and the “Number of ulcers in the stomach” value (white Wistar rats; [10]) was 4.0 ± 0.5. For the same molecule, the “Adrenaline level in blood serum” value (white Wistar rats; [11]) was 8.7 ± 3.82 µg/L, the “Eosinophil count in whole blood” value (white Wistar rats; [11]) was 885 ± 3.8 and the “Noradrenaline level in blood serum” value (white Wistar rats; [11]) was 20.3 ± 4.83 µg/L. For the same molecule, the “Number of ulcers in the stomach” value (white Wistar rats; [11]) was 2.5 ± 1.1, the “Adrenaline level in blood serum” value (white Wistar rats; [12]) was 9.6 ± 3.28 µg/L and the “Eosinophil count in whole blood” value (white Wistar rats; [12]) was 911 ± 8.2. For the same molecule, the “Noradrenaline level in blood serum” value (white Wistar rats; [12]) was 18.4 ± 5.27 µg/L, the “Number of ulcers in the stomach” value (white Wistar rats; [12]) was 2.1 ± 0.7 and the “all measured characteristics versus the control group (group #1)” value (white Wistar rats; all the tests, oral aqueous solutions) was 2.5-3.5 times. The “number of defecation acts, control animals versus treated animals” value (white Wistar rats; control more than treated) was 3-4 times, the “ulcer count versus the control group (group #1)” value (white Wistar rats; oral aqueous solutions) was “more than 10 times” and the “decrease in the level of adrenaline and norepinephrine” value (white Wistar rats; versus control) was 3,5-4 times. For the same molecule, the Adrenalin (rats; [13]) was 7.4 ± 1.4 µg/L, the “Duration of activity” value (rats; [13]) was 356.4 ± 26.1 s and the “Duration of immobility” value (rats; [13]) was 243.6 ± 17.6 s. For the same molecule, the “Eosinophils (Dunger method) in mm^3” value (rats; [13]) was 783.2 ± 24.7 in mm^3, the Noradrenalin (rats; [13]) was 19.9 ± 0.9 µg/L and the “Number of gastric ulcers” value (rats; [13]) was 1.5 ± 0.6. For the same molecule, the Adrenalin (rats; [14]) was 8.4 ± 0.9 µg/L, the “Duration of activity” value (rats; [14]) was 472.6 ± 29.3 s and the “Duration of immobility” value (rats; [14]) was 127.3 ± 19.7 s. For the same molecule, the “Eosinophils (Dunger method) in mm^3” value (rats; [14]) was 923.5 ± 64.2 in mm^3, the Noradrenalin (rats; [14]) was 18.3 ± 3.2 µg/L and the “Number of gastric ulcers” value (rats; [14]) was 1.6 ± 0.9. For the same molecule, the Adrenalin (rats; [15]) was 6.1 ± 0.6 µg/L, the “Duration of activity” value (rats; [15]) was 506.4 ± 31.4 s and the “Duration of immobility” value (rats; [15]) was 93.0 ± 19.3 s. The “Eosinophils (Dunger method) in mm^3” value (rats; [15]) was 987.3 ± 34.8 in mm^3, the Noradrenalin (rats; [15]) was 15.6 ± 0.79 µg/L and the “Number of gastric ulcers” value (rats; [15]) was 0.8 ± 0.2. For the same molecule, the Adrenalin (rats; [16]) was 20.3 ± 9.3 µg/L, the “Duration of activity” value (rats; [16]) was 221.1 ± 19.8 s and the “Duration of immobility” value (rats; [16]) was 377.9 ± 86.4 s. For the same molecule, the “Eosinophils (Dunger method) in mm^3” value (rats; [16]) was 409.7 ± 37.9 in mm^3, the Noradrenalin (rats; [16]) was 38.9 ± 10.9 µg/L and the “Number of gastric ulcers” value (rats; [16]) was 5.9 ± 0.4. For the same molecule, the LD100 (male Wistar rats; oral, white rats of the Wistar line) was 8000 mg/kg, the “Dead, %” value (male Wistar rats; single oral dose 1000 mg/kg) was 0% and the Dead (male Wistar rats; single oral dose 1000 mg/kg) was 0. The Survived (male Wistar rats; single oral dose 1000 mg/kg) was 6, the “Dead, %” value (male Wistar rats; single oral dose 2000 mg/kg) was 0% and the Dead (male Wistar rats; single oral dose 2000 mg/kg) was 0. The Survived (male Wistar rats; single oral dose 2000 mg/kg) was 6, the “Dead, %” value (male Wistar rats; single oral dose 3000 mg/kg) was 0% and the Dead (male Wistar rats; single oral dose 3000 mg/kg) was 0. For the same molecule, the Survived (male Wistar rats; single oral dose 3000 mg/kg) was 6, the “Dead, %” value (male Wistar rats; single oral dose 4000 mg/kg) was 0% and the Dead (male Wistar rats; single oral dose 4000 mg/kg) was 0. For the same molecule, the Survived (male Wistar rats; single oral dose 4000 mg/kg) was 6, the “Dead, %” value (male Wistar rats; single oral dose 5000 mg/kg) was 16.6% and the Dead (male Wistar rats; single oral dose 5000 mg/kg) was 1. For the same molecule, the Survived (male Wistar rats; single oral dose 5000 mg/kg) was 5, the “Dead, %” value (male Wistar rats; single oral dose 6000 mg/kg) was 50% and the Dead (male Wistar rats; [17]) was 3 and 3/3. For the same molecule, the Survived (male Wistar rats; [17]) was 3 and 3/3, the “Dead, %” value (male Wistar rats; single oral dose 7000 mg/kg) was 50% and the Dead (male Wistar rats; [18]) was 3 and 3/3. For the same molecule, the Survived (male Wistar rats; [18]) was 3 and 3/3 and the Survived (male Wistar rats; single oral dose 8000 mg/kg) was 0.
